Experimental findings from paper PMC7266110 (Drug Design, Development and Therapy, 2020) are described below.

This assay has as its target T1, PPARγ (Homo sapiens, UniProt P37231).
T1 sequence (P37231 1-505): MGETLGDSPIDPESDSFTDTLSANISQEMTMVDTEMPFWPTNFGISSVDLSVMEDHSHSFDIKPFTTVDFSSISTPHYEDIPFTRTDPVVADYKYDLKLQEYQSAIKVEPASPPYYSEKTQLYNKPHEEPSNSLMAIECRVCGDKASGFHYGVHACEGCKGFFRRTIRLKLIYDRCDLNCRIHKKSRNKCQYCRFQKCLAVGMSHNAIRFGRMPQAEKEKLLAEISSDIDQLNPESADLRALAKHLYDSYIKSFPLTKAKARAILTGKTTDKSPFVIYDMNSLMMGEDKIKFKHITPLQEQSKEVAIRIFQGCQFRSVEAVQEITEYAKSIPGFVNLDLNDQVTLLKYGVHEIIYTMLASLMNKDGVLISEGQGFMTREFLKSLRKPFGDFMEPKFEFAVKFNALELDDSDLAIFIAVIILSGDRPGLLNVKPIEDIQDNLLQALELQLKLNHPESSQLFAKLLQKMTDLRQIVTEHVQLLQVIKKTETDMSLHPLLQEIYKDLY
As to the kind of experiment: FP-based PPARγ ligand screening assay. Type of assay: binding.

Each structure is given as a SMILES string.

`O=C(/C=C/C=C/c1ccc2c(c1)OCO2)N1CCCCC1` [Piperine]: half-maximal inhibition (IC50) required 18.4 µM.
